The source made the active and inactive calls. No cut-off for these calls is given here.

In experiment [1] the target is T1, Class 1 histone deacetylase (Homo sapiens, UniProt Q13547+O15379+Q92769+Q9BY41). The experiment is described as follows: Inhibition of class 1 HDAC in human Cal27CisR cells assessed as potentiation of cisplatin-induced apoptosis assessed as increase in caspase-3/7 activation at […] preincubated for 48 hrs followed by cisplatin addition and measured after 24 hrs by CellEvent caspase 3/7 green detection reagent/Hoechst 33342 staining based imaging analysis. The experiment is classed as cell-based.
T1 sequence (O15379 whole entry, looked up): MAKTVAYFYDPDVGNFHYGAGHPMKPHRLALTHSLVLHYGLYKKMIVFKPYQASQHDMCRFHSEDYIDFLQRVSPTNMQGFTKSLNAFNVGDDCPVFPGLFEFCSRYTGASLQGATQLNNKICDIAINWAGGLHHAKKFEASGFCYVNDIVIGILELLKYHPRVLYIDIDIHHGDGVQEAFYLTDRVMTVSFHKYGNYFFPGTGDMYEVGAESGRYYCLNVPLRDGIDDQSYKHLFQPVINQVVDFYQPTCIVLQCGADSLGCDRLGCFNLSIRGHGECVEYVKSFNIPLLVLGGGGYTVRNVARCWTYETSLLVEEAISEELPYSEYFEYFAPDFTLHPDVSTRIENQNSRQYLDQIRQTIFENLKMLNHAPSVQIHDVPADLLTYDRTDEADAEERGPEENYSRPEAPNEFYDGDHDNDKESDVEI
T1 sequence (Q13547 whole entry, looked up): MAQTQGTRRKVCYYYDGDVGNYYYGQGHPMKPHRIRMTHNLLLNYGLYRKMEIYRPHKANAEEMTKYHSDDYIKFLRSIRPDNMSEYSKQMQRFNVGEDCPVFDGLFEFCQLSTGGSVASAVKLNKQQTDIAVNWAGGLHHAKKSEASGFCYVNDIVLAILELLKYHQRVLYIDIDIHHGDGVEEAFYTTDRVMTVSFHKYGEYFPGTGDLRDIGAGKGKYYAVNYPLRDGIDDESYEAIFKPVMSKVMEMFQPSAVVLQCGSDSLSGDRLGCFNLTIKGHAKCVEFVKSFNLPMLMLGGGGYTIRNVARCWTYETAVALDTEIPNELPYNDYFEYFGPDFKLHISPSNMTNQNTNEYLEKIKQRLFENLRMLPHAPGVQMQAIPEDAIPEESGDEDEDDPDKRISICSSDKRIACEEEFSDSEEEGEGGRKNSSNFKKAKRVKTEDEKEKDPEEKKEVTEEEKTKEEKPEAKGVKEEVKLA
T1 sequence (Q92769 whole entry, looked up): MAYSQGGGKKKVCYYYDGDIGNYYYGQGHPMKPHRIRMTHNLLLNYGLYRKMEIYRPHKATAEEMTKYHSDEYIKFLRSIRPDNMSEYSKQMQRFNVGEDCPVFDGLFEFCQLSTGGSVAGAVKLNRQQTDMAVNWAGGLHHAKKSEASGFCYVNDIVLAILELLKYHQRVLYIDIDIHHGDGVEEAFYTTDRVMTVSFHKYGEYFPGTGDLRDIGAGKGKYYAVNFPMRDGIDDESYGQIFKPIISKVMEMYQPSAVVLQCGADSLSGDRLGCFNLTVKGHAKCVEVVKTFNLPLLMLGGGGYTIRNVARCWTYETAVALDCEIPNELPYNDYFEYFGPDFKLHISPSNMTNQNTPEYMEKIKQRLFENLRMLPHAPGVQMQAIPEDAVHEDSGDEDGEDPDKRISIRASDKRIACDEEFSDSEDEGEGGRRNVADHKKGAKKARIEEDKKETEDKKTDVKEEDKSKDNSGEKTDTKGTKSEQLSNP
T1 sequence (Q9BY41 whole entry, looked up): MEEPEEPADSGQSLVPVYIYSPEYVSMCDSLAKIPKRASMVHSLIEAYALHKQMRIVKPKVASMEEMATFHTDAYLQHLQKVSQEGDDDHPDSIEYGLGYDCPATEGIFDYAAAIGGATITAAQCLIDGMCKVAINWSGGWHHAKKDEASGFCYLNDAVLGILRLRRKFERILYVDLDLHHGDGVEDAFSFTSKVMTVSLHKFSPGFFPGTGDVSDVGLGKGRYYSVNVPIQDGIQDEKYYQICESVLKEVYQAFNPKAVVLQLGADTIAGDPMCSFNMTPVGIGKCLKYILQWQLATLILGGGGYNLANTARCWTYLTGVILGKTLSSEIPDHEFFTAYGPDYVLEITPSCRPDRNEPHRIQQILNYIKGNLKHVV

Experiment [2] has as its target T1, Class 1 histone deacetylase. In words: Inhibition of class 1 HDAC in human Cal27CisR cells assessed as potentiation of cisplatin-induced apoptosis assessed as increase in caspase-3/7 activation at […] preincubated for 48 hrs followed by cisplatin addition and measured after 24 hrs in presence of pan caspase inhibitor QVD by CellEvent caspase 3/7 green detection reagent/Hoechst 33342 staining based imaging analysis. It counts as cell-based.

The target is the same in experiment [3].
Experiment [4] has the same target. This is another data set of the same source.
Description: Inhibition of class 1 HDAC in human Cal27CisR cells assessed as potentiation of cisplatin-induced cytotoxicity by measuring combination index at 0.25 uM in presence of 3.2 uM cisplatin by MTT assay based Chou-Talalay analysis
A short description of experiment [5]: Induction of apoptosis in human Cal27CisR cells assessed as caspase-3/7 activation at 0.5 uM measured after 48 hrs by CellEvent caspase 3/7 green detection reagent/Hoechst 33342 staining based imaging analysis relative to control. The experiment is classed as functional.
Experiment [6] has as its system CAL-27. In words: Induction of apoptosis in human CAL27 cells assessed as accumulation at sub-G1 phase at 100 uM measured after 48 hrs by propidium iodide staining based flow cytometry relative to control. The experiment is classed as functional.
The target in experiment [7] is T1, Class 1 histone deacetylase. The note with it: CAL-27.
Description: Inhibition of class 1 HDAC in human CAL27 cells assessed as potentiation of cisplatin-induced cytotoxicity by measuring combination index at 0.1 uM in presence of 10 uM cisplatin by MTT assay based Chou-Talalay analysis
Experiment [8] has the same target. The following applies: CAL-27. This is another data set of the same source.
Description: Inhibition of class 1 HDAC in human CAL27 cells assessed as potentiation of cisplatin-induced cytotoxicity by measuring combination index at 0.25 uM in presence of 1 uM cisplatin by MTT assay based Chou-Talalay analysis
Experiment [9] concerns CAL-27. The experiment is described as follows: Potency index, ratio of vorinostat IC50 to test compound IC50 for cytotoxicity against human CAL27 cells. The experiment is classed as functional.
In experiment [10] the target is T1, Class 1 histone deacetylase. The source holds these as a separate data set.
Description: Inhibition of class 1 HDAC in human Cal27CisR cells assessed as potentiation of cisplatin-induced cytotoxicity by measuring combination index at 0.25 uM in presence of 10 uM cisplatin by MTT assay based Chou-Talalay analysis
For experiment [11], the system named is CAL-27. In words: Induction of apoptosis in human CAL27 cells assessed as accumulation at sub-G1 phase at 0.5 uM after 48 hrs by propidium iodide staining based flow cytometry relative to control. The experiment is classed as functional.
Experiment [12] deals with T1, Class 1 histone deacetylase. The following applies: CAL-27. The source holds these as a separate data set.
Description: Inhibition of class 1 HDAC in human CAL27 cells assessed as potentiation of cisplatin-induced cytotoxicity by measuring combination index at 0.1 uM in presence of 3.2 uM cisplatin by MTT assay based Chou-Talalay analysis
Experiment [13] shares this target. In words: Inhibition of class 1 HDAC in human CAL27 cells assessed as potentiation of cisplatin-induced apoptosis by measuring increase in accumulation at sub-G1 phase at 5 uM preincubated for 48 hrs followed by cisplatin addition and measured after 24 hrs by propidium iodide staining based flow cytometry. The note with it: CAL-27. The experiment is classed as cell-based.

Experiment [14] has the same target. In words: Inhibition of class 1 HDAC in human Cal27CisR cells assessed as potentiation of cisplatin-induced cytotoxicity by measuring combination index at 5 uM in presence of 1 uM cisplatin by MTT assay based Chou-Talalay analysis. The experiment is classed as cell-based.
The target is the same in experiment [15]. In words: Inhibition of class 1 HDAC in human Cal27CisR cells assessed as potentiation of cisplatin-induced cytotoxicity by measuring combination index at 5 uM in presence of 10 uM cisplatin by MTT assay based Chou-Talalay analysis. The experiment is classed as cell-based.
Experiment [16] has the same target. The experiment is described as follows: Inhibition of class 1 HDAC in human Cal27CisR cells assessed as potentiation of cisplatin-induced cytotoxicity by measuring cisplatin IC50 at 5 uM preincubated for 48 hrs followed by cisplatin addition and measured after 72 hrs by MTT assay (reference value: 63.2 uM). The experiment is classed as cell-based.
In experiment [17] the test system is CAL-27. The experiment is described as follows: Induction of apoptosis in human CAL27 cells assessed as accumulation at sub-G1 phase at 5 uM after 48 hrs by propidium iodide staining based flow cytometry. It counts as functional, cell-based.
For experiment [18], the target named is T2, Protein deacetylase HDAC6 (Homo sapiens) (UniProt Q9UBN7).
T2 sequence (whole entry): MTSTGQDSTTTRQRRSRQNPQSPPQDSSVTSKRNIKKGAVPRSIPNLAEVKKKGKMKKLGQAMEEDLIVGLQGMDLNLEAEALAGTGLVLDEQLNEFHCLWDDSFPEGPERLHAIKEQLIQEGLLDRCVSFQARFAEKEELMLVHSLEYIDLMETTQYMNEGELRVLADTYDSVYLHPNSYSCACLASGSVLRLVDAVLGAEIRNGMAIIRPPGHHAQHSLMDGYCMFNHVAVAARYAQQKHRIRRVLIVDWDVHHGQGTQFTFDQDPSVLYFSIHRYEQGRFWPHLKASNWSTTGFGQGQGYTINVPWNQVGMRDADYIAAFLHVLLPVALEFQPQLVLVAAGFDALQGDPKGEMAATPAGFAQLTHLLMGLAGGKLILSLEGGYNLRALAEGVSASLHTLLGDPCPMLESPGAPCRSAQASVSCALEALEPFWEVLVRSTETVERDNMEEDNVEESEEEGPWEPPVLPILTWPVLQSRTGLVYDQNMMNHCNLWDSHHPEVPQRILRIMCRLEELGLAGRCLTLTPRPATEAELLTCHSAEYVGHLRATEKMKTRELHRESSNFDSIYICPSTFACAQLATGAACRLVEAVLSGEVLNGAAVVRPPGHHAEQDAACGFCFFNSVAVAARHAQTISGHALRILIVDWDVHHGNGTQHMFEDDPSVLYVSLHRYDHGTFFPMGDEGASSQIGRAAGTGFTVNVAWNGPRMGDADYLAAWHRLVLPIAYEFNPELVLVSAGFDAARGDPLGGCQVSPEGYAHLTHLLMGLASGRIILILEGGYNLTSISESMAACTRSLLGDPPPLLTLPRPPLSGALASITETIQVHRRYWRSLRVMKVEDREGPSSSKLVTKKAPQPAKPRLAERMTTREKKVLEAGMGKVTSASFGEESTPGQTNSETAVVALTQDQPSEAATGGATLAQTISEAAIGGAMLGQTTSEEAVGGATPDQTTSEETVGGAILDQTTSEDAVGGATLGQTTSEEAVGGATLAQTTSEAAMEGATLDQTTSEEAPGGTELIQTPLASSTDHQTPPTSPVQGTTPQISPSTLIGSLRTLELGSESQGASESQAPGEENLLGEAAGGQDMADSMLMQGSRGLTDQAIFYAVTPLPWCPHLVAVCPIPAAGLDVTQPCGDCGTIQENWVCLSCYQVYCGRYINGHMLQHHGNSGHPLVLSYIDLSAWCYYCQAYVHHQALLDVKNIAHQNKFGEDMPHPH
The experiment is described as follows: Inhibition of HDAC6 in human Cal27CisR cells assessed as acetylation of alpha-tubulin at 5 uM measured after 24 hrs by immunoblot analysis. It counts as cell-based.

Experiment [19] concerns the target T1, Class 1 histone deacetylase. The experiment is described as follows: Inhibition of class 1 HDAC in human CAL27 cells assessed as potentiation of cisplatin-induced cytotoxicity by measuring combination index at 5 uM in presence of 10 uM cisplatin by MTT assay based Chou-Talalay analysis. It counts as cell-based. The note with it: CAL-27.

Regarding `Cc1cc(C)cc(C(=O)N(CC(=O)NCc2ccccc2)Cc2ccc(C(=O)Nc3cc(-c4ccccc4)ccc3N)cc2)c1`, the inhibition entry in [1] is “Active”. The inhibition result in experiment [2] is “inactive”.

As to `CN(C)c1ccc(C(=O)N(CC(=O)NCc2ccccc2)Cc2ccc(C(=O)Nc3ccccc3N)cc2)cc1`, the CI in experiment [3] was 0.04; in experiment [4], 0.44; in experiment [7] it was 0.33; in experiment [8] it was 0.11; in experiment [10], 0.23; in experiment [12], 0.37. The Activity in experiment [5] is on record as 8.16%; in the experiment on CAL-27 [6], 31%; in the experiment with CAL-27 [11] it was 9.42%. Further, the “Ratio IC50” value with CAL-27 [9] is reported as 1.7.

Take `Cc1cc(C)cc(C(=O)N(CCCCCC(=O)Nc2cc(-c3ccccc3)ccc2N)CC(=O)NCc2ccccc2)c1`: the inhibition result in experiment [13] was “Active”. Besides, the values for the CI in experiment [14], in [15] and in experiment [19] were less than 0.2, 0.1 and 0.09, respectively. In addition, the IC50 in experiment [16] came out at 15.7 µM. In the experiment on CAL-27 [17], the result was inactive. In addition, the inhibition entry in experiment [18] is “inactive”.

The values above are taken from ChEMBL document CHEMBL4334526, “Synthesis of Peptoid-Based Class I-Selective Histone Deacetylase Inhibitors with Chemosensitizing Properties” (J Med Chem, 2019).
